Measurements: patent US4910196A, “Highly soluble antibacterially active organic salts of pyridobenzothiazines” (Mediolanum Farmaceutici Srl, priority 1986, dated 1990)
Where a name gives a salt, the structure may show the parent alone.

Experiments:
[1] = pH of the aqueous solution; format: physicochemical; settings: for pH: in solution in water
physchem = settings: water, Solubility in H2O

Structure (SMILES) | water solubility | pH [1] | pH values (in words) ([1]; in solution) | pH ([1]; listed as gluconate) | solubility (physchem)
CN1CCN(c2c(F)cc3c(=O)c(C(=O)O)cn4c3c2SCC4)CC1 [9-fluoro-10[N-(4'-methyl)piperazinyl]-7-oxo-2,3-dihydro-7H-pyrido[1,2,3 de][1,4]benzothiazine-6-carboxylic acid hydrochloride, reference compound] | 8 mg/mL | – | – | – | –
CN1CCN(c2c(F)cc3c(=O)c(C(=O)O)cn4c3c2SCC4)CC1 [Salt with L-tartaric acid] | 6 mg/mL | 4.09-4.10 | – | – | –
CN1CCN(c2c(F)cc3c(=O)c(C(=O)O)cn4c3c2SCC4)CC1 [Salt with citric acid] | 2.7 mg/mL | 3.99-4.00 | – | – | –
CN1CCN(c2c(F)cc3c(=O)c(C(=O)O)cn4c3c2SCC4)CC1 [Salt with gluconic acid] | 360 mg/mL | 5.07-5.10 | particularly high pH | about 5 | 360 mg/mL
CN1CCN(c2c(F)cc3c(=O)c(C(=O)O)cn4c3c2SCC4)CC1 [Salt with malonic acid] | 3 mg/mL | 4.22 | – | – | –
CN1CCN(c2c(F)cc3c(=O)c(C(=O)O)cn4c3c2SCC4)CC1 [methanesulphonate, 9-fluoro-10[N-(4'-methyl)piperazinyl]-7-oxo-2,3-dihydro-7H-pyrido[1,2,3 de][1,4]benzothiazine-6-carboxylic acid methanesulphonate] | 87 mg/mL | approximately 3 | – | – | –
